Our source for the EC50 values is patent publication US11384078B2, “5,6-fused-bicyclic compounds and compositions for the treatment of parasitic diseases” (NOVARTIS AG, priority 2017, dated 2022).

The EC50 is the concentration at which the effect is half-maximal.

Holding throughout (format): cell-based
The test system of assay [1] is Trypanosoma cruzi amastigotes cultured in 3T3 fibroblast cells. The experiment in a line: Assay for growth inhibition of kinetoplastid parasite Trypanosoma cruzi (beta-galactosidase Tulahuen strain, CPRG readout). The conditions noted are these: Trypanosoma cruzi, T. cruzi amastigotes in 3T3 fibroblast cells, read-out: Buckner infectious T. cruzi EC50. In a few lines:
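3T3 fibroblasts (1,000 cells/well) plated overnight, treated with compound in DMSO, then infected with 10,000 Lac-Z-expressing Tulahuen trypomastigotes. After 6 days, 0.6 mM CPRG with 0.6% NP-40 added for 2 h at room temperature; absorbance gives relative intracellular amastigote numbers. Benznidazole and nifurtimox serve as positive controls.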

The test system of assay [2] is Leishmania donovani axenic amastigote. Put plainly: In vitro assay for growth inhibition of Leishmania donovani axenic amastigote (Cell TiterGlo luminescence). As to conditions: Leishmania donovani, L. donovani axenic amastigotes in vitro; read-out: L. donovani amastigotes EC50. The gist of the method: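 Axenic L. donovani amastigotes (9600/well) grown at 37 °C, 5% CO2 in supplemented RPMI 1640, pH 5.5, with compound added from DMSO. After two days, viability read by CellTiter-Glo luminescence against DMSO and control-compound wells.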
(In general: In ATP-based viability assays light output follows the ATP content of the culture.)

In assay [3] the test system is L. donovani HU3 strain in mouse peritoneal macrophages. Put plainly: Assay for inhibition of parasitemia of Leishmania donovani in mouse macrophages (SYBR Green nuclei count, high-content imaging). As to conditions: Leishmania donovani, Peritoneal macrophage, read-out: L. donovani in Mouse Macrophages EC50. In a few lines:
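Peritoneal macrophages from uninfected BALB/c mice were infected for 24 h with spleen-derived L. donovani HU3 (4×10^5 parasites per 2×10^4 macrophages), then cultured with compound for 5 days at 37° C, 5% CO2. After fixation and permeabilization, parasite nuclei were stained with SYBR Green and counted by high-content imaging.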

Assay [4] relates to Trypanosoma brucei brucei (Lister 427) strain. The experiment in a line: Assay for growth inhibition against Trypanosoma brucei brucei (Cell TiterGlo ATP luminescence). As to conditions: Trypanosoma brucei, T. brucei brucei (Lister 427); read-out: T. Brucei (HAT) EC50. The gist of the method: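 T. b. brucei Lister 427 grown in HMI-9 with 10% FBS and 10% serum plus, seeded at 10,000 parasites/mL with 10-point threefold compound dilutions in duplicate, 37 °C for 2 days. Viability read as ATP luminescence 30 min after Cell TiterGlo; IC50 versus untreated controls.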

Where [5] appears, read: L. donovani in mouse peritoneal macrophages.

The structures appear in SMILES notation. Where two headings read alike, the source gives them in different places. Some results are limits rather than exact numbers.

On to `O=C(Nc1ccc(F)c(-n2cc3cc(C4CCOCC4)cnc3n2)c1)N1CC(F)(F)C1` [Compound 165, 3,3-difluoro-N-{4-fluoro-3-[5-(oxan-4-yl)-2H-pyrazolo[3,4-b]pyridin-2-yl]phenyl}azetidine-1-carboxamide], for which the EC50 in assay [1] (Fibroblast) was 40 nM; in assay [2] it was 10 nM; in assay [3] (setting [5]) it was 10 nM; in assay [4], below 23 nM.
Consider `O=C(Nc1ccc(F)c(-n2cc3cc(-c4cnn(C5CC5)c4)cnc3n2)c1)N1CC(F)C1` [Compound 325, N-{3-[5-(1-cyclopropyl-1H-pyrazol-4-yl)-2H-pyrazolo[3,4-b]pyridin-2-yl]-4-fluorophenyl}-3-fluoroazetidine-1-carboxamide], for which the EC50 is 36 nM in assay [1] (Fibroblast), 8 nM in assay [2], 50 nM in assay [3] (setting [5]) and 11 nM in assay [4].
For `O=C(Nc1ccc(F)c(-n2cc3cc(-c4ccccn4)cnc3n2)c1)C1=CCC1` [Compound 218, N-{4-fluoro-3-[5-(pyridin-2-yl)-2H-pyrazolo[3,4-b]pyridin-2-yl]phenyl}cyclobut-1-ene-1-carboxamide] the same measures were 38 nM, 4 nM, 212 nM and 3 nM.
For `Cc1cc(C(=O)Nc2ccc(F)c(-n3cc4cc(C(C)C)cnc4n3)c2)c(C)o1` [Compound 72, N-{4-fluoro-3-[5-(propan-2-yl)-2H-pyrazolo[3,4-b]pyridin-2-yl]phenyl}-2,5-dimethylfuran-3-carboxamide] the same measures were 180 nM, 2100 nM, 1400 nM and 420 nM.
Take `O=C(Nc1ccc(F)c(-n2cc3cc(Br)cnc3n2)c1)N1CC(F)C1` [Compound 126, N-(3-(5-bromo-2H-pyrazolo[3,4-b]pyridin-2-yl)-4-fluorophenyl)-3-fluoroazetidine-1-carboxamide]: the EC50 in assay [1] was 14 nM; in assay [2] it was 24 nM; in assay [3], 14 nM; in assay [4], below 23 nM.
On to `O=C(Nc1ccc(F)c(-n2cc3cc(C4CC4)cnc3n2)c1)N1CCC1` [Compound 91, N-(3-{5-cyclopropyl-2H-pyrazolo[3,4-b]pyridin-2-yl}-4-fluorophenyl)azetidine-1-carboxamide], for which the EC50 in assay [1] (Fibroblast) was 4.1 nM; in assay [2] it was 8.7 nM; in assay [3] (setting [5]) it was 8.6 nM; in assay [4], below 23 nM.
For `O=C(Nc1ccnc(-n2cc3cc(-c4ccccn4)cnc3n2)c1)N1CCC1` [Compound 341, N-{2-[5-(pyridin-2-yl)-2H-pyrazolo[3,4-b]pyridin-2-yl]pyridin-4-yl}azetidine-1-carboxamide] the same measures were 10 nM, 6 nM, 33 nM and 9 nM.
For `Cc1nc(C)c(C(=O)Nc2ccc(F)c(-n3cc4cc(-c5ncccc5CO)cnc4n3)c2)o1` [Compound 335] the same measures were 470 nM, 13 nM, 111 nM and 36 nM.
For `CN(C)c1cnc2nn(-c3cc(NC(=O)C4CC4)ccc3F)cc2c1` [Compound 331, N-{3-[5-(dimethylamino)-2H-pyrazolo[3,4-b]pyridin-2-yl]-4-fluorophenyl}cyclopropanecarboxamide] the same measures were 138 nM, 217 nM, 910 nM and 206 nM.
Turning to `O=C(Nc1ccc(F)c(-n2cc3cc(Br)cnc3n2)c1)N1CC[C@@H](F)C1` [Compound 127, (R)—N-(3-(5-bromo-2H-pyrazolo[3,4-b]pyridin-2-yl)-4-fluorophenyl)-3-fluoropyrrolidine-1-carboxamide], the 50% effective concentration (EC50) is 6.8 nM in assay [1] (Fibroblast), 25 nM in assay [2], 17 nM in assay [3] (setting [5]) and below 23 nM in assay [4].
